The values below come from US20210047324A1 (Aptinyx Inc., priority 2018, published 2021).

The structures appear in SMILES notation.

Series [1] in a line: Oral pharmacokinetics in Sprague Dawley rats (plasma, brain, CSF). In kind it is in vivo. The note with it: rat, 10 mg/kg. As for the experimental part: In another experiment, Sprague Dawley rats were dosed per os (oral gavage) using a normal saline formulation containing 10 mg/kg of the compounds identified in the table below. Plasma, brain, and CSF samples were analyzed at various time points over a 24 hour period. The table below summarizes the results of the oral pharmacokinetics, where the first three values (Tmax, Cmax and AUClast) are plasma values.

Series [2] concerns the target T1, NMDAR2B (Homo sapiens, UniProt Q13224).
T1 construct: expressed in transfected cells; host or cells: HEK cells (membrane extract)
In words: NMDAR agonist assay, [3H]MK-801 binding, NMDAR2B expressing HEK cell membranes. The series is classed as biochemical. The note with it: 50 μM glutamate. The method, boiled down:
(§1)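 Membranes from HEK cells (300 μg protein) preincubated 15 min with 50 μM glutamate plus compound (1×10^−15–1×10^−7 M) or 1 mM glycine, then with 0.3 μCi [3H]MK-801 for 15 min at 25° C. (nonequilibrium); filter-bound DPM, baseline-subtracted, expressed as % of 1 mM glycine; EC50 and % maximum from three-parameter fit.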

Series [3] addresses T2, NMDAR2A (Homo sapiens, UniProt Q12879).
T2 construct: expressed in transfected cells; host or cells: HEK cells (membrane extract)
In words: NMDAR agonist assay, [3H]MK-801 binding, NMDAR2A expressing HEK cell membranes. Particulars: 50 μM glutamate. The series is classed as biochemical. The method, boiled down:
as §1

Series [4] can be described thus: Plasma stability (Rat). The series is classed as in vitro ADME. The note with it: after 60 minutes. As for the experimental part:
(§2) Plasma stability of disclosed compounds was investigated. The following table indicates the percent of compound remaining after 60 minutes.

Series [5] can be described thus: Plasma stability (Human). In kind it is in vitro ADME. Particulars: after 60 minutes. The protocol:
as §2

The nature of series [6]: Microsomal stability (Human). The series is classed as in vitro ADME. Particulars: after 60 minutes. As for the experimental part: Microsomal stability of disclosed compounds was investigated. The following table indicates the percent of compound remaining after 60 minutes.
Series [7] is described as follows: IV pharmacokinetics in Sprague Dawley rats. The series is classed as in vivo. The note with it: Sprague-Dawley, rat, in vivo, iv, 2 mg/kg, normal saline. As for the experimental part:
Sprague Dawley rats were dosed intravenously using a normal saline formulation containing 2 mg/kg of the compounds identified in the below table. The table below summarizes the results of the IV pharmacokinetics.

Series [8] addresses T3, NMDAR2C (Homo sapiens, UniProt Q14957).
T3 construct: expressed in transfected cells; host or cells: HEK cells (membrane extract)
In words: NMDAR agonist assay, [3H]MK-801 binding, NMDAR2C expressing HEK cell membranes. The series is classed as biochemical. Particulars: 50 μM glutamate; relative to 1 mM glycine. As for the experimental part: Assays were conducted as described by Moskal et al., “GLYX-13: a monoclonal antibody-derived peptide that acts as an N-methyl-D-aspartate receptor modulator,” Neuropharmacology, 49, 1077-87, 2005. These studies were designed to determine if the test compounds act to facilitate NMDAR activation in NMDAR2A, NMDAR2B, NMDAR2C or NMDAR2D expressing HEK cell membranes as measured by increases in [^3H]MK-801 binding.
In the assay, 300 μg of NMDAR expressing HEK cell membrane extract protein was preincubated for 15 minutes at […] in the presence of saturating concentrations of glutamate (50 μM) and varying concentrations of test compound (1×10^−15M-1×10^−7M), or 1 mM glycine. Following the addition of 0.3 μCi of [3H]MK-801 (22.5 Ci/mmol), reactions were again incubated for 15 minutes at 25° C. (nonequilibrium conditions). Bound and free [3H]MK-801 were separated via rapid filtration using a Brandel apparatus.
In analyzing the data, the DPM (disintegrations per minute) of [3H]MK-801 remaining on the filter were measured for each concentration of test compound or for 1 mM glycine. The DPM values for each concentration of a ligand (N=2) were averaged. The baseline value was determined from the best fit curve of the DPM values modeled using the GraphPad program and the log(agonist) vs. response (three parameters) algorithm was then subtracted from all points in the dataset. The % maximal [^3H]MK-801 binding was then calculated relative to that of 1 mM glycine: all baseline subtracted DPM values were divided by the average value for 1 mM glycine. The EC50 and % maximal activity were then obtained from the best fit curve of the % maximal [3H]MK-801 binding data modelled using the GraphPad program and the log(agonist) vs. response (three parameters) algorithm.
The tables below summarize the results for the wild type […] NMDAR2A, NMDAR2B, NMDAR2C, and NMDAR2D, and whether the compound is not an agonist (−), is an agonist (+), or is a strong agonist (++), where column A is based on the % maximal [3H]MK-801 binding relative to 1 mM glycine (−=0; <100%=+; and >100%=++); and column B is based on log EC50 values (0=−; ≥1×10^−9 M (e.g., −8)=+; and <1×10^−9 M (e.g., −10)=++).

T2 sequence (Q12879 23-1464, species assumed, other chains not shown): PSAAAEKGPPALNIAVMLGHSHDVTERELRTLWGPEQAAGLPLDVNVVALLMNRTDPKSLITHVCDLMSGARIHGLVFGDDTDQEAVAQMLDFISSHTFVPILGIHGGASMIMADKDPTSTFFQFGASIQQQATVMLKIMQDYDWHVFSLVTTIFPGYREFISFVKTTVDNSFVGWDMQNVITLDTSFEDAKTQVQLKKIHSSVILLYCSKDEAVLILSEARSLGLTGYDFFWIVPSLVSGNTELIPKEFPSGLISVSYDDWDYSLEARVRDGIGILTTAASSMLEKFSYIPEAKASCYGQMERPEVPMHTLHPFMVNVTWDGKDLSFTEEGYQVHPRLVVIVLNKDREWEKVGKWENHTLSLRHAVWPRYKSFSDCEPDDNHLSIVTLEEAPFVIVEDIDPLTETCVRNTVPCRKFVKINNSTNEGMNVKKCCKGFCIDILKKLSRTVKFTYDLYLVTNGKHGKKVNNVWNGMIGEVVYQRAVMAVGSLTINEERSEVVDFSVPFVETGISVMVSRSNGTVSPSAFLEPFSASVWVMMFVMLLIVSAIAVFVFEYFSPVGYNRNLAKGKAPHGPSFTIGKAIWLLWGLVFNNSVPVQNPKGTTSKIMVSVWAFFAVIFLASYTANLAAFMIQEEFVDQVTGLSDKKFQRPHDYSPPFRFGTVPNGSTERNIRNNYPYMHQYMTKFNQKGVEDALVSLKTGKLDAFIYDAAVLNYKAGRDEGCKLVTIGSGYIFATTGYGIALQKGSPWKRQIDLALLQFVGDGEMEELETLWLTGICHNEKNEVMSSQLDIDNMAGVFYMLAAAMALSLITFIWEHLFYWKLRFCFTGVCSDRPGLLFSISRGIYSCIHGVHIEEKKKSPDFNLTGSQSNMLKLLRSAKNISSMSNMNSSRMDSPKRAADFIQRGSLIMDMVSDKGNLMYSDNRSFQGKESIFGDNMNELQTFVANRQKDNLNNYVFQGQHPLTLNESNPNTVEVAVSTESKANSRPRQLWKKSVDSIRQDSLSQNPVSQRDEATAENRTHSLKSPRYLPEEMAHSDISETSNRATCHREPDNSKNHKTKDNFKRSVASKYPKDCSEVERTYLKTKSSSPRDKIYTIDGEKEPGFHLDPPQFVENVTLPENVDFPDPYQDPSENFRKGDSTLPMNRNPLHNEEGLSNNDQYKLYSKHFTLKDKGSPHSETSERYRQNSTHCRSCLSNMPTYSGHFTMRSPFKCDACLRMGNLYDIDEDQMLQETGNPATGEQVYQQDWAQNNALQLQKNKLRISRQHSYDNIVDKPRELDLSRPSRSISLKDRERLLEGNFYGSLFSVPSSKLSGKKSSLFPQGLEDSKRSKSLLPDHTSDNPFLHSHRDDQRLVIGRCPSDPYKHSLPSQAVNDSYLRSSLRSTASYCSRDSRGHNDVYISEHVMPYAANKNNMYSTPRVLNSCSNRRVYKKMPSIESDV
T1 sequence (Q13224 27-1484, species assumed, other chains not shown): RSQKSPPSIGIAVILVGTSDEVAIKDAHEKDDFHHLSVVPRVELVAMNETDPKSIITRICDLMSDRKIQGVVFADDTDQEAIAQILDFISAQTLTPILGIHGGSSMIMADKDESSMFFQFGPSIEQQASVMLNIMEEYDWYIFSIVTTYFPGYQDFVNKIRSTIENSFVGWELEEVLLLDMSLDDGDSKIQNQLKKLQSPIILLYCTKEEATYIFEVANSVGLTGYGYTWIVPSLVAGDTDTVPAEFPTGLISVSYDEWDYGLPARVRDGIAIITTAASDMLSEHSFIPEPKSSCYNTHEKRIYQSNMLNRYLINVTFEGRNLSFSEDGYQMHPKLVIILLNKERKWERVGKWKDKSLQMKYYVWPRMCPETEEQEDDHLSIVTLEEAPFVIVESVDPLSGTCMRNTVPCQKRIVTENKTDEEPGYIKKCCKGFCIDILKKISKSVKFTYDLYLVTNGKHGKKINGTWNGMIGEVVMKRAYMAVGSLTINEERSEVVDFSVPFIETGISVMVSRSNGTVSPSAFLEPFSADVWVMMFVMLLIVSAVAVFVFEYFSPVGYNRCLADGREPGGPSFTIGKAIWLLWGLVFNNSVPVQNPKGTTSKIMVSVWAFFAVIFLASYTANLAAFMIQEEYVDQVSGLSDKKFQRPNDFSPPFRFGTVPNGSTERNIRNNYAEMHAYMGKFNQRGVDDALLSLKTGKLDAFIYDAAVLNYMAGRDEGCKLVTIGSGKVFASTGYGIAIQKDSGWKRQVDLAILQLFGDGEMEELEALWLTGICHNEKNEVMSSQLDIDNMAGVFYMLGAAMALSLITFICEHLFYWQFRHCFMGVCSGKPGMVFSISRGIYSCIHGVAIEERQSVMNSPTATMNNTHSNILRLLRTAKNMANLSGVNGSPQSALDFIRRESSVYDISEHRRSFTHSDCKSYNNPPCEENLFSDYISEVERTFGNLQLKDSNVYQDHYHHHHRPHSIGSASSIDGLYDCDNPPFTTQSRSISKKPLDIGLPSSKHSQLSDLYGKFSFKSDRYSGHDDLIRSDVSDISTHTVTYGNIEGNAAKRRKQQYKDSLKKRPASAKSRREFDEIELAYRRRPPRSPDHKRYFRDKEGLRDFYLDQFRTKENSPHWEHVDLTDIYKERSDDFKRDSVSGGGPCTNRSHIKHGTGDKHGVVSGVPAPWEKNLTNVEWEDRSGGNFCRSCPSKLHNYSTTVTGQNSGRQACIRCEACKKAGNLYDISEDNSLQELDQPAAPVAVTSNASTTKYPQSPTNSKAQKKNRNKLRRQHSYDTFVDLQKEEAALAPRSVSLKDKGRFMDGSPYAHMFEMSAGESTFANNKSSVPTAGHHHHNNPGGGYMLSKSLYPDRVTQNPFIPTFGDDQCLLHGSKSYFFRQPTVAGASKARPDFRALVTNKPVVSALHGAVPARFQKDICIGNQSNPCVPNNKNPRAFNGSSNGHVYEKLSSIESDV
T3 sequence (Q14957 20-1233, species assumed, other chains not shown): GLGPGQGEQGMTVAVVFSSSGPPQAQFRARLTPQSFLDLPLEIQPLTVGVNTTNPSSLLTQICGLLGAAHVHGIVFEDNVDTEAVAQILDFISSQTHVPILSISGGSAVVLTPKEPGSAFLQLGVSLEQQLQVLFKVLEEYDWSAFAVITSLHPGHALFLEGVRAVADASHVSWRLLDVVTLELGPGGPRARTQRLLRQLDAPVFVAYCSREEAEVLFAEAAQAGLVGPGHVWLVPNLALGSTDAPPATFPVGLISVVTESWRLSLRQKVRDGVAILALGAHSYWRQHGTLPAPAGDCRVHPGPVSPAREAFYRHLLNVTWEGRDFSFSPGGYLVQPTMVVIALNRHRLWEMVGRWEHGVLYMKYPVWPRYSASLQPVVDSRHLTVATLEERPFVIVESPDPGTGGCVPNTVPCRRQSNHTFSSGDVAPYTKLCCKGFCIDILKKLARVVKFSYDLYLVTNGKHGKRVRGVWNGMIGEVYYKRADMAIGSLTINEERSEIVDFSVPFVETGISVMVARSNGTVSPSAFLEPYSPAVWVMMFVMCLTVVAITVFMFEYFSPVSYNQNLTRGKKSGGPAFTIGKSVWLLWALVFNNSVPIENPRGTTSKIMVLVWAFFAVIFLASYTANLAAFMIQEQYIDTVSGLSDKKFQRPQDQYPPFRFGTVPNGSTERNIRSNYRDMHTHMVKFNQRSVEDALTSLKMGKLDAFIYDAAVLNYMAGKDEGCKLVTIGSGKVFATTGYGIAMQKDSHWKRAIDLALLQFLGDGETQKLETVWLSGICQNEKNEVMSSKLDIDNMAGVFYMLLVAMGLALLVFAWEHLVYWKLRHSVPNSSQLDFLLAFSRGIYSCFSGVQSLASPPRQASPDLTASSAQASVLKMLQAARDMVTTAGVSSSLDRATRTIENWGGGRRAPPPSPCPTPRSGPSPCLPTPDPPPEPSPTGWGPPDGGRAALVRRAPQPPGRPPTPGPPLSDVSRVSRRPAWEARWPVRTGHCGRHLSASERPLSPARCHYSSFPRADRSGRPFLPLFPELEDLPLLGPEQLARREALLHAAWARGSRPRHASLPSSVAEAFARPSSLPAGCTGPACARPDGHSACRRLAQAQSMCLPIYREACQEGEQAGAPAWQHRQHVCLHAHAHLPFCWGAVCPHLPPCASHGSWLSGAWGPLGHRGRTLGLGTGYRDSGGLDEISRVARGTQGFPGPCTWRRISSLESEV

As usually defined, the Tmax is the time at which the peak concentration occurs. A word on the AUC(0-t): it is exposure summed from dosing to a finite time, without extrapolation to infinity. As usually defined, the bioavailability is dose-corrected exposure relative to a reference, in per cent. As a reminder, the Cmax is the maximum level reached in the sampled fluid or tissue. In general, EC50 refers to the concentration needed to bring the measured effect to its halfway point. As a reminder, the clearance is the volume of plasma or blood freed of the substance per unit of time. The term half-life denotes the time in which the quantity being followed falls by half. Regarding `O=C1NCC=CC[C@]12CCCN2` [GA, (R)-1,7-diazaspiro[4.6]undec-9-en-6-one], the Tmax in series [1] (Sprague-Dawley, po, per os, plasma, read-out: Tmax) came out at 0.5 h. Moreover, the AUC(0-t) stood at 3860 ng·h/mL in series [1] (Sprague-Dawley, plasma, po, per os) and 1250 ng·h/mL in series [7]. The compound also gave a bioavailability in series [1] (Sprague-Dawley, plasma, po, per os 10 mg/kg) of 62%. Moreover, the Cmax in series [1] (Sprague-Dawley, plasma, po, per os, plasma, read-out: Cmax) stood at 1960 ng/mL; in series [7] (read-out: Cmax) it was 1470 ng/mL. In addition, the “CSF Cmax” value in series [1] (per os, CSF) was found to be 551.3 ng/mL. Besides, the “Brain Cmax” value in series [1] (per os, brain) is 3963.2 ng/mL. Moreover, the EC50 in series [2] (read-out: NMDAR2B B: log EC50 (converted)) and in series [3] (read-out: NMDAR2A B: log EC50 (converted)) was at least 1 nM in each case. For the same compound, the Emax in series [2] (relative to 1 mM glycine, read-out: NMDAR2B A: % maximal [3H]MK-801 binding relative to 1 mM glycine) was under 100%; in series [3] (0.25 h, relative to 1 mM glycine, read-out: NMDAR2A A: % maximal [3H]MK-801 binding relative to 1 mM glycine), under 100%. Moreover, the “Plasma (Rat): percent of compound remaining” value in series [4] turned out to be 100%. In addition, in series [5], the “Plasma (Human): percent of compound remaining” value stood at 95%. Moreover, in series [6], the “Microsomal (Human): percent of compound remaining” value amounted to 94%. The clearance in series [7] was found to be 27 mL/min/kg. Further, the half-life in series [7] was 3.6 h. Moreover, the Vd in series [7] (read-out: Vss) turned out to be 3.92 L/kg. Also, the “NMDAR2C A: % maximal [3H]MK-801 binding relative to 1 mM glycine” value in series [8] turned out to be 0%.
